# In patent US10174053B2, “2 substituted cephem compounds” (Glaxo Group Limited, priority 2012, dated 2019):
# Where two headings read alike, the source gives them in different places.
# Assays:
# Assay in all cases: In vitro antimicrobial activity, MIC by broth microdilution (CLSI)
# Format in all cases: cell-based
# K. pneumoniae SR01358 = settings: Klebsiella pneumoniae
# Experimental: (§1) Compound (I) of the invention was evaluated for in vitro antimicrobial activity thereof.
# (§2) Measurement of Minimum Inhibitory Concentration (MIC: μg/mL) was conducted according to CLSI (Clinical and Laboratory Standards Institute) method, and the amount of bacteria for inoculation was 5×10^5 cfu/mL, and cation-adjusted Iso-Sensitest broth containing human Apo-transferrin was used as a test medium, and the experiment was conducted using broth microdilution method. The bacteria used are listed below.
# A. baumannii JMI2346 = settings: Acinetobacter baumannii
# Experimental: as §1, §2
# E. Coli JMI1890 = settings: Escherichia coli, read-out: Minimum Inhibitory Concentration (MIC) E. Coli JMI:1890
# Experimental: as §1, §2
# A. baumannii JMI7 = settings: Acinetobacter baumannii
# Experimental: as §1, §2
# [1] = SR01358, KPC-2, ESBL and KPC-type carbapenemase producing strain, 5×10^5 cfu/mL, cation-adjusted Iso-Sensitest broth containing human Apo-transferrin, read-out: Minimum Inhibitory Concentration (MIC) K. pneumoniae SR01358
# [2] = JMI2346, OXA-51, TEM, ESBL and OXA-type carbapenemase producing strain, 5×10^5 cfu/mL, cation-adjusted Iso-Sensitest broth containing human Apo-transferrin, read-out: Minimum Inhibitory Concentration (MIC) A. baumannii JMI:2346
# [3] = PER-1, TEM-1, ESBL producing strain, 5×10^5 cfu/mL, cation-adjusted Iso-Sensitest broth containing human Apo-transferrin
# [4] = JMI7, PER-1, OXA-23, 51, ESBL and OXA-type carbapenemase producing strain, 5×10^5 cfu/mL, cation-adjusted Iso-Sensitest broth containing human Apo-transferrin, read-out: Minimum Inhibitory Concentration (MIC) A. baumannii JMI:7
# [5] = SR01358, read-out: Minimum Inhibitory Concentration (MIC) K. pneumoniae SR01358
# [6] = JMI2346, read-out: Minimum Inhibitory Concentration (MIC) A. baumannii JMI:2346
# [7] = JMI7, read-out: Minimum Inhibitory Concentration (MIC) A. baumannii JMI:7
Compound,MIC (K. pneumoniae SR01358; [1]),MIC (A. baumannii JMI2346; [2]),MIC (E. Coli JMI1890; [3]),MIC (A. baumannii JMI7; [4]),MIC (K. pneumoniae SR01358; [5]),MIC (A. baumannii JMI2346; [6]),MIC (E. Coli JMI1890),MIC (A. baumannii JMI7; [7])
C[C@@H]1S[C@@H]2[C@H](NC(=O)/C(=N\OC(C)(C)C(=O)[O-])c3csc(N)n3)C(=O)N2C(C(=O)[O-])=C1C[N+]1(CCN2C(=O)c3cc(O)c(O)cc3C2=O)CCCC1.[Na+] [Compound I-1],≤ 0.031 µg/mL,16 µg/mL,1 µg/mL,1 µg/mL,–,–,–,–
C[C@@H]1S[C@@H]2[C@H](NC(=O)/C(=N\OC(C)(C)C(=O)[O-])c3csc(N)n3)C(=O)N2C(C(=O)[O-])=C1C[N+]12CCC(CNC(=O)C(=O)c3ccc(O)c(O)c3Cl)(CC1)CC2.[Na+] [Compound I-3],≤ 0.031 µg/mL,2 µg/mL,0.5 µg/mL,0.5 µg/mL,–,–,–,–
C[C@@H]1S[C@@H]2[C@H](NC(=O)/C(=N\OC(C)(C)C(=O)[O-])c3csc(N)n3)C(=O)N2C(C(=O)[O-])=C1C[N+]1(CCn2[nH]c(=O)c3cc(O)c(O)cc3c2=O)CCCC1.[Na+] [Compound I-4],≤ 0.031 µg/mL,–,2 µg/mL,1 µg/mL,–,–,–,–
C[C@@H]1S[C@@H]2[C@H](NC(=O)/C(=N\OC(C)(C)C(=O)[O-])c3csc(N)n3)C(=O)N2C(C(=O)[O-])=C1C[N+]1(CCNC(=O)C(=O)c2cc(O)c(O)c(Cl)c2)CCCC1.[Na+] [Compound I-8],0.25 µg/mL,16 µg/mL,1 µg/mL,1 µg/mL,–,–,–,–
C[C@@H]1S[C@@H]2[C@H](NC(=O)/C(=N\OC(C)(C)C(=O)[O-])c3csc(N)n3)C(=O)N2C(C(=O)[O-])=C1C[N@+]12CCC[C@H]1CN(C(=O)C(=O)c1cc(O)c(O)c(Cl)c1)CC2.[Na+] [Compound I-10],≤ 0.031 µg/mL,8 µg/mL,1 µg/mL,1 µg/mL,–,–,–,–
C[C@@H]1S[C@@H]2[C@H](NC(=O)/C(=N\O[C@@H](CC(=O)[O-])C(=O)[O-])c3csc(N)n3)C(=O)N2C(C(=O)[O-])=C1C[N@+]12CCC[C@H]1CN(C(=O)C(=O)c1cc(O)c(O)c(Cl)c1)CC2.[Na+].[Na+] [Compound I-11],0.063 µg/mL,16 µg/mL,2 µg/mL,2 µg/mL,–,–,–,–
C[C@@H]1S[C@@H]2[C@H](NC(=O)/C(=N\OC(C)(C)C(=O)[O-])c3csc(N)n3)C(=O)N2C(C(=O)[O-])=C1C[N@+]1(C)[C@@H]2CC[C@H]1C[C@@H](NC(=O)C(=O)c1cc(O)c(O)c(Cl)c1)C2.[Na+] [Compound I-12],≤ 0.031 µg/mL,4 µg/mL,0.25 µg/mL,1 µg/mL,–,–,–,–
C[C@@H]1S[C@@H]2[C@H](NC(=O)/C(=N\O[C@@H](CC(=O)[O-])C(=O)[O-])c3csc(N)n3)C(=O)N2C(C(=O)[O-])=C1C[N@+]1(C)[C@@H]2CC[C@H]1C[C@@H](NC(=O)C(=O)c1cc(O)c(O)c(Cl)c1)C2.[Na+].[Na+] [Compound I-13],0.063 µg/mL,8 µg/mL,1 µg/mL,2 µg/mL,–,–,–,–
C[C@@H]1S[C@@H]2[C@H](NC(=O)/C(=N\OC(C)(C)C(=O)[O-])c3csc(N)n3)C(=O)N2C(C(=O)[O-])=C1C[N+]12CCC(CNC(=O)C(=O)c3cc(O)c(O)c(Cl)c3)(CC1)CC2.[Na+] [Compound I-14],≤ 0.031 µg/mL,8 µg/mL,1 µg/mL,2 µg/mL,–,–,–,–
C[C@@H]1S[C@@H]2[C@H](NC(=O)/C(=N\O[C@@H](CC(=O)[O-])C(=O)[O-])c3csc(N)n3)C(=O)N2C(C(=O)[O-])=C1C[N+]12CCC(CNC(=O)C(=O)c3cc(O)c(O)c(Cl)c3)(CC1)CC2.[Na+].[Na+] [Compound I-15],–,16 µg/mL,1 µg/mL,4 µg/mL,–,–,–,–
C[C@@H]1S[C@@H]2[C@H](NC(=O)/C(=N\OC(C)(C)C(=O)[O-])c3csc(N)n3)C(=O)N2C(C(=O)[O-])=C1C[N+]12CCC(CC1)N(C(=O)C(=O)c1cc(O)c(O)c(Cl)c1)CC2.[Na+] [Compound I-16],≤ 0.031 µg/mL,8 µg/mL,0.5 µg/mL,1 µg/mL,–,–,–,–
C[C@@H]1S[C@@H]2[C@H](NC(=O)/C(=N\O[C@@H](CC(=O)[O-])C(=O)[O-])c3csc(N)n3)C(=O)N2C(C(=O)[O-])=C1C[N+]12CCC(CC1)N(C(=O)C(=O)c1cc(O)c(O)c(Cl)c1)CC2.[Na+].[Na+] [Compound I-17],≤ 0.031 µg/mL,16 µg/mL,2 µg/mL,4 µg/mL,–,–,–,–
C[C@@H]1S[C@@H]2[C@H](NC(=O)/C(=N\OC(C)(C)C(=O)[O-])c3csc(N)n3)C(=O)N2C(C(=O)O)=C1C[N@+]1(C)[C@@H]2CC[C@H]1C[C@@H](NC(=O)C(=O)c1ccc(O)c(O)c1Cl)C2 [Compound I-20],–,–,–,–,≤ 0.031 µg/mL,0.5 µg/mL,0.063 µg/mL,0.125 µg/mL
C[C@@H]1S[C@@H]2[C@H](NC(=O)/C(=N\OC(C)(C)C(=O)[O-])c3csc(N)n3)C(=O)N2C(C(=O)O)=C1C[N+]1(CCNN2C(=O)c3cc(O)c(O)cc3C2=O)CCCC1 [Compound I-26],≤ 0.031 µg/mL,4 µg/mL,0.5 µg/mL,0.5 µg/mL,–,–,–,–
C[C@@H]1S[C@@H]2[C@H](NC(=O)/C(=N\OC(C)(C)C(=O)[O-])c3csc(N)n3)C(=O)N2C(C(=O)O)=C1C[N+]1(CCON2C(=O)c3cc(O)c(O)cc3C2=O)CCCC1 [Compound I-27],≤ 0.031 µg/mL,4 µg/mL,0.5 µg/mL,0.5 µg/mL,–,–,–,–
CC[N+](CC)(CCN1C(=O)c2ccc(O)c(O)c2C1=O)CC1=C(C(=O)O)N2C(=O)[C@@H](NC(=O)/C(=N\OC(C)(C)C(=O)[O-])c3csc(N)n3)[C@H]2S[C@H]1C [Compound I-36],0.125 µg/mL,4 µg/mL,0.5 µg/mL,0.5 µg/mL,–,–,–,–
CC[N+](CC)(CCNC(=O)c1ccc(O)c(O)c1Cl)CC1=C(C(=O)O)N2C(=O)[C@@H](NC(=O)/C(=N\OC(C)(C)C(=O)[O-])c3csc(N)n3)[C@H]2S[C@H]1C [Compound I-37],0.125 µg/mL,4 µg/mL,0.5 µg/mL,1 µg/mL,–,–,–,–
C[C@@H]1S[C@@H]2[C@H](NC(=O)/C(=N\OC(C)(C)C(=O)[O-])c3csc(N)n3)C(=O)N2C(C(=O)O)=C1C[N@+]1(C)[C@@H]2CC[C@H]1C[C@@H](N1C(=O)c3ccc(O)c(O)c3C1=O)C2 [Compound I-38],–,–,–,–,0.063 µg/mL,0.5 µg/mL,0.25 µg/mL,0.25 µg/mL
C[C@@H]1S[C@@H]2[C@H](NC(=O)/C(=N\OC(C)(C)C(=O)[O-])c3csc(N)n3)C(=O)N2C(C(=O)O)=C1C[N+]12CCC(CN3C(=O)c4ccc(O)c(O)c4C3=O)(CC1)CC2 [Compound I-39],0.063 µg/mL,1 µg/mL,0.25 µg/mL,0.125 µg/mL,–,–,–,–
C[C@@H]1S[C@@H]2[C@H](NC(=O)/C(=N\OC(C)(C)C(=O)[O-])c3csc(N)n3)C(=O)N2C(C(=O)[O-])=C1C[N+]1(C)C[C@H]2CN(C(=O)c3cc(O)c(O)c(Cl)c3)C[C@H]2C1.[Na+] (stereo partly shown) [Compound I-63],≤ 0.031 µg/mL,–,1 µg/mL,1 µg/mL,–,–,–,–
C[C@@H]1S[C@@H]2[C@H](NC(=O)/C(=N\OC(C)(C)C(=O)[O-])c3csc(N)n3)C(=O)N2C(C(=O)O)=C1C[N+]1(CCNC(=O)c2cc(=O)c(O)c[nH]2)CCCC1 [Compound I-130],≤ 0.031 µg/mL,–,8 µg/mL,–,–,–,–,–
C[C@@H]1S[C@@H]2[C@H](NC(=O)/C(=N\OC(C)(C)C(=O)[O-])c3csc(N)n3)C(=O)N2C(C(=O)[O-])=C1C[N+]12CCC(CNC(=O)c3cc(=O)c(O)c[nH]3)(CC1)CC2.[Na+] [Compound I-140],≤ 0.031 µg/mL,–,0.5 µg/mL,4 µg/mL,–,–,–,–
